In ChEMBL document CHEMBL1201862, “PubChem BioAssay data set” (2004):
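Following 48 hours of exposure in 96-well plates, responses at five concentrations were used to interpolate endpoints linearly. GI50 is the concentration that inhibits growth by half.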 The source made the active and inactive calls. No stated cut-off is given here; in the data, active = GI50 up to about 1.1 µM and inactive = higher.

Experiments:
Assay in all cases: NCI anticancer screen, dose series, 48 h
786-0 = test system: 786-0
A498 = test system: A498
A549 = test system: A549
ACHN = test system: ACHN
BT-549 = test system: BT-549
CAKI-1 = test system: CAKI-1
CCRF-CEM = test system: CCRF-CEM
COLO 205 = test system: COLO 205
DLD-1 = test system: DLD-1
DMS-114 = test system: DMS-114
DMS-273 = test system: DMS-273
DU-145 = test system: DU-145
EKVX = test system: EKVX
HCC 2998 = test system: HCC 2998
HCT-116 = test system: HCT-116
HCT-15 = test system: HCT-15
HL-60 = test system: HL-60
HOP-18 = test system: HOP-18
HOP-62 = test system: HOP-62
HOP-92 = test system: HOP-92
HT-29 = test system: HT-29
Hs-578T = test system: Hs-578T
IGROV-1 = test system: IGROV-1
K562 = test system: K562
KM-20L2 = test system: KM-20L2
KM12 = test system: KM12
LOX IMVI = test system: LOX IMVI
LXFL 529 = test system: LXFL 529
M14 = test system: M14
M19-MEL = test system: M19-MEL
MCF7 = test system: MCF7
MDA-MB-231 = test system: MDA-MB-231
MDA-MB-435 = test system: MDA-MB-435
MDA-N = test system: MDA-N
MOLT-4 = test system: MOLT-4
Malme-3M = test system: Malme-3M
NCI-H226 = test system: NCI-H226
NCI-H23 = test system: NCI-H23
NCI-H460 = test system: NCI-H460
NCI-H522 = test system: NCI-H522
NCI/ADR-RES = test system: NCI/ADR-RES
OVCAR-3 = test system: OVCAR-3
OVCAR-4 = test system: OVCAR-4
OVCAR-5 = test system: OVCAR-5
OVCAR-8 = test system: OVCAR-8
PC-3 = test system: PC-3
RPMI-8226 = test system: RPMI-8226
RXF 393 = test system: RXF 393
RXF 631 = test system: RXF 631
SF-268 = test system: SF-268
SF-295 = test system: SF-295
SF-539 = test system: SF-539
SK-MEL-28 = test system: SK-MEL-28
SK-MEL-2 = test system: SK-MEL-2
SK-MEL-5 = test system: SK-MEL-5
SK-OV-3 = test system: SK-OV-3
SN12C = test system: SN12C
SNB-19 = test system: SNB-19
SNB-75 = test system: SNB-75
SNB-78 = test system: SNB-78
SR = test system: SR
SW-620 = test system: SW-620
T47D = test system: T47D
TK-10 = test system: TK-10
U-251 = test system: U-251
UACC-257 = test system: UACC-257
UACC-62 = test system: UACC-62
UO-31 = test system: UO-31

COc1cc(Cn2c(=S)ss/c2=N\C(=S)N(C)C)cc(OC)c1OC
GI50 (786-0): 7.36 µM (inactive)
GI50 (A498): 22.6 µM (inactive)
GI50 (A549): 13.2 µM (inactive)
GI50 (ACHN): 7.06 µM (inactive)
GI50 (BT-549): > 20.7 µM (inactive)
GI50 (CAKI-1): 4.57 µM (inactive)
GI50 (CCRF-CEM): 4.32 µM (inactive)
GI50 (COLO 205): 9.33 µM (inactive)
GI50 (DLD-1): 6.31 µM (inactive)
GI50 (DMS-114): 2.93 µM (inactive)
GI50 (DMS-273): 4.41 µM (inactive)
GI50 (DU-145): > 28.5 µM (inactive)
GI50 (EKVX): > 81.5 µM (inactive)
GI50 (HCC 2998): 49.1 µM (inactive)
GI50 (HCT-116): 4.53 µM (inactive)
GI50 (HCT-15): 3.57 µM
GI50 (HL-60): 2.05 µM (inactive)
GI50 (HOP-18): > 92 µM (inactive)
GI50 (HOP-62): 13.3 µM (inactive)
GI50 (HOP-92): 17.9 µM (inactive)
GI50 (HT-29): 4.04 µM (inactive)
GI50 (Hs-578T): 2.7 µM (inactive)
GI50 (IGROV-1): 17.2 µM (inactive)
GI50 (K562): 2.59 µM (inactive)
GI50 (KM-20L2): 4.68 µM (inactive)
GI50 (KM12): 2.64 µM (inactive)
GI50 (LOX IMVI): 4.69 µM (inactive)
GI50 (LXFL 529): 6.37 µM (inactive)
GI50 (M14): 4.73 µM (inactive)
GI50 (M19-MEL): 4.11 µM (inactive)
GI50 (MCF7): 3.64 µM (inactive)
GI50 (MDA-MB-231): 15.1 µM (inactive)
GI50 (MDA-MB-435): 1.26 µM (inactive)
GI50 (MDA-N): 1.1 µM (active)
GI50 (MOLT-4): 8.91 µM (inactive)
GI50 (Malme-3M): 3.21 µM (inactive)
GI50 (NCI-H226): 24.3 µM (inactive)
GI50 (NCI-H23): 14.7 µM (inactive)
GI50 (NCI-H460): 4.16 µM (inactive)
GI50 (NCI-H522): 2.3 µM (inactive)
GI50 (NCI/ADR-RES): 1.61 µM (inactive)
GI50 (OVCAR-3): 1.89 µM (inactive)
GI50 (OVCAR-4): 48.4 µM (inactive)
GI50 (OVCAR-5): > 68.9 µM (inactive)
GI50 (OVCAR-8): 52.6 µM (inactive)
GI50 (PC-3): 3.35 µM (inactive)
GI50 (RPMI-8226): 6.7 µM (inactive)
GI50 (RXF 393): 2.79 µM (inactive)
GI50 (RXF 631): 4.25 µM (inactive)
GI50 (SF-268): 8.93 µM (inactive)
GI50 (SF-295): 3.44 µM (inactive)
GI50 (SF-539): 6.35 µM (inactive)
GI50 (SK-MEL-28): 10 µM (inactive)
GI50 (SK-MEL-2): 4.46 µM (inactive)
GI50 (SK-MEL-5): 2.26 µM (inactive)
GI50 (SK-OV-3): 13.4 µM (inactive)
GI50 (SN12C): > 50.2 µM (inactive)
GI50 (SNB-19): 46.1 µM (inactive)
GI50 (SNB-75): 3.77 µM (inactive)
GI50 (SNB-78): > 100 µM (inactive)
GI50 (SR): 3.42 µM (inactive)
GI50 (SW-620): 2.81 µM (inactive)
GI50 (T47D): > 86.7 µM (inactive)
GI50 (TK-10): 34.8 µM (inactive)
GI50 (U-251): 4.61 µM (inactive)
GI50 (UACC-257): 10.6 µM (inactive)
GI50 (UACC-62): 2.85 µM (inactive)
GI50 (UO-31): 24.3 µM (inactive)
